In article PMC10485906, “Development of a Dihydroquinoline–Pyrazoline GluN2C/2D-Selective Negative Allosteric Modulator of the N-Methyl-D-aspartate Receptor” (ACS Chemical Neuroscience, 2023):
Read-outs that look alike come from different tables or passages of the source.

Key:
[1] = target: GluN1/GluN2C (Rattus norvegicus, UniProt Q00961); test: Whole-cell voltage-clamp recordings, HEK cells, GluN1/GluN2C (agonist dependence); type: cell-based
Description: (§1) We also evaluated the mechanism of inhibition of GluN1/GluN2C expressed in HEK cells preincubated with glycine for inhibitor 2i (DQP-997-74) by comparing inhibitor potency during the peak and steady-state current responses to glutamate application. […] The deactivation of GluN1/GluN2C receptors (0.53 ± 0.07 s) was slowed by the presence of compound 2i when applied at concentrations of 1 μM (1.3 ± 0.14 s; p = 0.001) and 3 μM (2.3 ± 0.40 s; p < 0.0001) but not at 0.1 μM (0.61 ± 0.07 s; p = 0.965) and 0.3 μM (0.88 ± 0.13 s; p = 0.115; Figure S2).
(§2) HEK293 cells (HEK, ATCC CRL-1573) were plated on glass coverslips pretreated with 0.1 mg/mL poly-D-lysine and cultured in Dulbecco’s modified Eagle medium (DMEM) plus Glutamax (GIBCO 10569-10) supplemented with 10% fetal bovine serum, 10 U/mL of penicillin, and 10 μg/mL of streptomycin at 37 °C and 5% CO2. The cells were transiently transfected with cDNA encoding rat GluN1, GluN2D, and eGFP at a ratio of 1:1:5 by using the calcium phosphate precipitation method.[48] After 24–48 h following the transfection, the cells were perfused with external recording solution that contained (in mM) 3 KCl, 150 NaCl, 0.01 EDTA, 1.0 CaCl2, 10 HEPES, and 22 D-mannitol (the pH was adjusted to 7.4 with NaOH). The patch electrodes (resistance 3–5 MΩ) were prepared from thin-walled glass micropipettes (TW150F-4, World Precision Instruments, Sarasota, FL) by a dual-stage glass micropipette puller (PC-10, Narishige, Tokyo, Japan) and filled with internal solution containing (in mM) 110 D-gluconate, 110 CsOH, 30 CsCl, 5 HEPES, 4 NaCl, 0.5 CaCl2, 2 MgCl2, 5 BAPTA, 2 NaATP, and 0.3 NaGTP. The pH was adjusted to 7.4 with CsOH; osmolality was adjusted to about 300–305 mOsmol/kg. The whole-cell current responses were evoked by application of maximally effectively concentrations of agonists (100 μM glutamate and 30 μM glycine) at a holding potential of −60 mV and recorded using an Axopatch 200B patch-clamp amplifier (Molecular Devices, Union City, CA). A two-barreled theta-glass micropipette was used for rapid solution exchange controlled by a piezoelectric translator (Burleigh Instruments, Newton, NJ). For some experiments, 500 μM NMDA and 250 μM glycine were briefly applied by pressure application from a patch pipette (tip 3–5 MΩ). The current responses were low pass filtered at 2 kHz 8-pole Bessel filter (−3 dB; Frequency Devices) and digitized at 20 kHz using Digidata 1440A acquisition system (Molecular Devices) controlled by Clampex 10.3 (Molecular Devices). All patch experiments were performed at room temperature (23 °C).
(§3) Confidence intervals were determined for the log(IC50). The time course of relaxation during inhibitor application or deactivation following rapid removal of NMDA or glutamate was fitted by the equation [drawing 5] 2 […]
(§4) μM), which is consistent with increased inhibitor potency late in the stimulus train after agonist is bound. […]
(§5) inhibition of recombinant GluN1/GluN2C receptors expressed in HEK cells. GluN1/GluN2C current responses were recorded to glutamate with pre-applied glycine and compound 2i or control (pre-applied glycine and vehicle, 0.1% DMSO; see Figure S2A). The concentration-response curves show peak and steady-state responses normalized to control (Figure S2B). A linear relationship exists between 1/τinhibition and compound 2i concentration from which kON and kOFF can be calculated (see Results, Figure S2C). The deactivation time course following rapid glutamate removal was expanded to show the slowing of receptor deactivation (τdeactivation) by compound 2i (Figure S2D). τdeactivation for individual cells as well as the mean ± SEM are plotted and data were compared by mixed effects model (F (4, 17) = 22.60, p<0.0001; asterisks indicate statistically significant differences, see Results for p -values).
(§6) 2013) and the whole cell current recordings from HEK cells of GluN1/GluN2D responses to glutamate with pre-applied (S)-2a or vehicle (0.1% DMSO). The IC50 for (S)-2a 33 (Figure S3) was 4-fold higher […]

[2] = target: GluN1/GluN2C (Rattus norvegicus, UniProt P35439+Q00961); test: as above; type: cell-based; details: for IC50: inhibitor and glycine preapplied
Sequence of GluN1/GluN2C (Rattus norvegicus, UniProt P35439+Q00961) (Q00961 20-1237, other chains not shown): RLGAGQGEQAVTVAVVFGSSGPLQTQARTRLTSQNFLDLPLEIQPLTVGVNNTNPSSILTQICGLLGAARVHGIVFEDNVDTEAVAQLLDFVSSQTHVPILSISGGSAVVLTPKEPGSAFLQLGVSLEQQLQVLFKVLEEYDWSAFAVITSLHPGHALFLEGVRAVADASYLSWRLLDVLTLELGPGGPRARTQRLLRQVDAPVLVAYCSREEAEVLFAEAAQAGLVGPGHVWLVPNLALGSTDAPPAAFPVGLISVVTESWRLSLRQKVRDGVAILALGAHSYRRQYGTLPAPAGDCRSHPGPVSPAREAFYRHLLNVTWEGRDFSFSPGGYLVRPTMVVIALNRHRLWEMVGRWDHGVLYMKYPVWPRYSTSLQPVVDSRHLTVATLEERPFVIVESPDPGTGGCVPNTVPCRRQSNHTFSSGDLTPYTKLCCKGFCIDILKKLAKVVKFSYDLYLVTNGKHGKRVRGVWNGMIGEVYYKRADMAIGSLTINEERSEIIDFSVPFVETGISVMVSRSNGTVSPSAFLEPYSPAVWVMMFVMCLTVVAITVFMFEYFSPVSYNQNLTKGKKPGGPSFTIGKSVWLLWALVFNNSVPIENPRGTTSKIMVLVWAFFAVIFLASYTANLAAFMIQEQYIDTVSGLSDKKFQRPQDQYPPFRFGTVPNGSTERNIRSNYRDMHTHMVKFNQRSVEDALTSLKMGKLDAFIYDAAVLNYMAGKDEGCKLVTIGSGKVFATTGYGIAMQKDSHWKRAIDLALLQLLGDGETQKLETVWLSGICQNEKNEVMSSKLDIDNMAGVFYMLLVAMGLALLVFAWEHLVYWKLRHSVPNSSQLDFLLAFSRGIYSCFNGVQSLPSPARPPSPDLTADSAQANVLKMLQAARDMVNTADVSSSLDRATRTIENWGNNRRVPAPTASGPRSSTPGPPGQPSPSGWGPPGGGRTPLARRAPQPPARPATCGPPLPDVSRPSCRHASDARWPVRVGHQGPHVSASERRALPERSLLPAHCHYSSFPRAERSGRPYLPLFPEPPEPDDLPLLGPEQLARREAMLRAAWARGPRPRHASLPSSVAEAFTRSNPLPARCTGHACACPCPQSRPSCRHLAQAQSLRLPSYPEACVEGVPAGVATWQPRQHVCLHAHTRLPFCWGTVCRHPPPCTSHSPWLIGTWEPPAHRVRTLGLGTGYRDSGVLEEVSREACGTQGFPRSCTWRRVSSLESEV
Description: as §1, §2, §3, §4, §5, §6

[3] = HEK293, linear regression of 1/τinhibition vs concentration

Sequence of GluN1/GluN2C (Rattus norvegicus, UniProt Q00961) (Q00961 20-1237, other chains not shown): as above

For `O=C(O)CC(F)(F)C(=O)N1N=C(c2c(-c3ccc(Cl)cc3)c3ccccc3[nH]c2=O)CC1c1ccc(Cl)cc1` (stereo not drawn) [2i], the “deactivation of GluN1/GluN2C receptors” value ([1]; 0.1 μM compound) was 0.61 ± 0.07 s, the “deactivation of GluN1/GluN2C receptors” value ([1]; 0.3 μM compound) was 0.88 ± 0.13 s and the “deactivation of GluN1/GluN2C receptors” value ([1]; 1 μM compound) was 1.3 ± 0.14 s. The “deactivation of GluN1/GluN2C receptors” value ([1]; 3 μM compound) was 2.3 ± 0.40 s, the koff [2, 3] was 0.27 s⁻¹ and the kon [2, 3] was 800000 M⁻¹ s⁻¹. It also gave a Kd ([2]; from kON and kOFF) of 330 nM, an IC50 ([2]; read-out: IC50 peak current responses) of 5000 nM and an IC50 ([2]; read-out: IC50 steady-state responses) of 250 nM.
